Reference: patent US20120264685A1 (priority 2009, published 2012)
Where a SMILES comes first, the peptide text is derived from it. [ ]: non-standard residue; d: D form. ξ: configuration not given here. ξαMeBip(2'-Et,4'-OMe) = CCc1cc(OC)ccc1-c1ccc(CC(C)(N)C(=O)O)cc1; ξBip(2'-Et-4'-OMe) = CCc1cc(OC)ccc1-c1ccc(CC(N)C(=O)O)cc1; ξαMePhe(2,6-F2) = CC(N)(Cc1c(F)cccc1F)C(=O)O; ξαMe(hhPhe) = CC(N)(CCCc1ccccc1)C(=O)O; ξαMePhe(2-F) = CC(N)(Cc1ccccc1F)C(=O)O; ξhhPhe = NC(CCCc1ccccc1)C(=O)O; ξαMeD = CC(N)(CC(=O)O)C(=O)O; ξαMeP = CC1(C(=O)O)CCCN1; ξαMeS = CC(N)(CO)C(=O)O; Aib = CC(C)(N)C(=O)O

Tests used:
[1] = system: RIN5F (Rat Insulinoma) cells; assay: In vitro glucose-dependent insulin secretion (RIN5F cell assay); type: cell-based; details: 16.7-mM glucose load, n = 3, mean ± S.D.
Summary of the method: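 Rat RIN5F cells were preincubated 40 min in Krebs-Ringer buffer with 1.1 mM glucose and 0.5% BSA, pH 7.4, then exposed to test peptidomimetics for 30 min at 37 °C with 16.7 mM or 0 mM glucose. Supernatant insulin was measured by rat insulin ELISA and normalised to total protein (BCA), as pg/μg.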

DPP IV enzyme = DPP IV enzyme (Homo sapiens, UniProt P27487); assay: Stability against DPP IV enzyme; type: in vitro ADME; details: 2 μM, 37° C.; for half-life: read-out: half-life (t1/2) with DPP-IV enzyme
Sequence of DPP IV enzyme (P27487 whole entry, species assumed, the tested form may be a part): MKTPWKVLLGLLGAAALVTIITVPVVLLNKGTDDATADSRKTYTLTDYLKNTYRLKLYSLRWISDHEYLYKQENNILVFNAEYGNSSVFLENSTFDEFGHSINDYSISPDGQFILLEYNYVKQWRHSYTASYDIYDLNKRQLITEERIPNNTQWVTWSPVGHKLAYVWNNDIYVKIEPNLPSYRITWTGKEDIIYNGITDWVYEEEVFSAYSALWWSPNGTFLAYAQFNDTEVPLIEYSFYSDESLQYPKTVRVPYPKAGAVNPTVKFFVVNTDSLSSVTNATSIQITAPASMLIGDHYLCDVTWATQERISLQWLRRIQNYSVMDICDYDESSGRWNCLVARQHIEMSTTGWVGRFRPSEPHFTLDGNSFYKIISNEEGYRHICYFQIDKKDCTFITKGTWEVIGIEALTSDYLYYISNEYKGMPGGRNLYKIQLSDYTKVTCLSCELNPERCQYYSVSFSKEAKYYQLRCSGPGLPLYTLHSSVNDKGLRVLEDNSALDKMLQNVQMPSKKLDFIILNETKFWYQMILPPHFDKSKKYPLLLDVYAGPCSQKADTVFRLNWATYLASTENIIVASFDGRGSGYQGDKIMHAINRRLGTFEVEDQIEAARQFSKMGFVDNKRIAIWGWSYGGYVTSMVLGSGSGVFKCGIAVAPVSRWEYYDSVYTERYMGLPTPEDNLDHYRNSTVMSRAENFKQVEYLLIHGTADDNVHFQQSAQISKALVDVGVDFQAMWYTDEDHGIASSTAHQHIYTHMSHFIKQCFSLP
Procedure: (§1) Different peptidomimetics (final concentration 2 μM) were incubated with either DPP IV (1:25 mU) or pooled human plasma (7.5 μL) or simulated gastric fluid (pH 1.5; composition HCl, NaCl and Pepsin) or simulated intestinal fluid (pH 7.5) or human liver microsomes, for 0, 2, 4, 6, 12 and 24 h (37° C.; 50 mM triethanolamine-HCl buffer; pH 7.8). […] Reactions were terminated by the addition of TFA/H2O ([…], 10% (v/v)). The reaction products were then applied to a Vydac C18 analytical column (4.6×250-mm) and the major degradation fragment separated from intact peptidomimetic. The column was equilibrated with TFA/H20, at a flow rate of 1 mL/min. Using 0.1% (v/v) TFA in 70% acetonitrile/H2O, the concentration of acetonitrile in the eluting solvent was raised from 0% to 28% over 10 min and from 28% to 42% over 30 min. The absorbance was monitored at 206 nm using UV detector and peaks were collected manually prior to ESI-MS analysis. Area under the curve was measured for test peptidomimetics and their metabolites and percentage degradation were calculated at each time point over a period of 24 h.

[2] = Stability in human plasma; type: in vitro ADME; details: 2 μM, 37° C.; for half-life: human, plasma, read-out: half-life (t1/2) in human plasma
Procedure: as §1

[3] = Stability in simulated gastric fluid; type: in vitro ADME; details: 2 μM, 37° C.; for half-life (t1/2) in simulated gastric fluid / half-life: pH 1.5; for % degradation in 24 h when incubated with simulated gastric fluid: pH 1.5, 24 h; for half-life: simulated gi fluid, read-out: half-life (t1/2) in simulated gastric fluid
Procedure: (§2) Reactions were terminated by the addition of TFA/H2O ([…], 10% (v/v)). […] The column was equilibrated with TFA/H20, at a flow rate of 1 mL/min. […] The absorbance was monitored at 206 nm using UV detector and peaks were collected manually prior to ESI-MS analysis.

[4] = Stability in simulated intestinal fluid; type: in vitro ADME; details: 2 μM, 37° C.; for half-life (t1/2) in simulated intestinal fluid / half-life: pH 7.5; for % degradation in 24 h when incubated with simulated intestinal fluid: pH 7.5, 24 h; for half-life: simulated gi fluid, read-out: half-life (t1/2) in simulated intestinal fluid
Procedure: as §2

[5] = Stability in liver microsomes; type: in vitro ADME, human; details: 2 μM, 37° C.; for half-life: human, microsomes, read-out: half-life (t1/2) in liver microsomes
Procedure: as §2

Row | % degradation in 24 h when incubated with DPP-IV enzyme (DPP IV enzyme) | half-life (DPP IV enzyme) | % degradation in 24 h when incubated with human plasma [2] | half-life [2] | half-life (t1/2) in simulated gastric fluid [3] | % degradation in 24 h when incubated with simulated gastric fluid [3] | half-life (t1/2) in simulated intestinal fluid [4] | % degradation in 24 h when incubated with simulated intestinal fluid [4] | % degradation in 24 h when incubated with liver microsomes [5] | half-life [5] | half-life [3] | half-life [4] | half-life (t1/2) in human plasma [2] | half-life (t1/2) in liver microsomes [5] | Compound | Insulin secretion ([1]; 0.1 nM test compd.) | Insulin secretion ([1]; 1 nM test compd.) | Insulin secretion ([1]; 10 nM test compd.)
1 | 70% | 9 h | 71% | 8 h | (8) h | 14% | (6) h | 40% | 78% | 1 h |  |  |  |  | CCc1cc(OC)ccc1-c1ccc(CC(C)(NC(=O)[C@H](CC(=O)O)NC(=O)[C@H](CO)NC(=O)[C@@H](NC(=O)C(C)(Cc2c(F)cccc2F)NC(=O)[C@@H](NC(=O)CNC(=O)[C@H](CCC(N)=O)NC(=O)C2(C)CCCN2C(=O)[C@H](Cc2c[nH]cn2)NC(=O)[C@@H](N)C(C)C)[C@@H](C)O)[C@@H](C)O)C(=O)NC(CCCc2ccccc2)C(N)=O)cc1 (stereo partly drawn) [compound 28] (H-VH[ξαMeP]QGT[ξαMePhe(2,6-F2)]TSD[ξαMeBip(2'-Et,4'-OMe)][ξhhPhe]-NH2) | 11.8 ± 0.50 pg/µg/h | 14.9 ± 0.11 pg/µg/h | 27.9 ± 0.31 pg/µg/h
2 | 86% | 9 h | 70% | 8 h | (8) h | 15% | (6) h | 41% | 77% | 1 h |  |  |  |  | CCc1cc(OC)ccc1-c1ccc(CC(C)(NC(=O)[C@H](CC(=O)O)NC(=O)[C@H](CO)NC(=O)[C@@H](NC(=O)C(C)(Cc2c(F)cccc2F)NC(=O)[C@@H](NC(=O)CNC(=O)[C@H](CCC(=O)O)NC(=O)C(C)(C)NC(=O)[C@H](Cc2c[nH]cn2)NC(=O)[C@@H](N)C(C)C)[C@@H](C)O)[C@@H](C)O)C(=O)NC(CCCc2ccccc2)C(N)=O)cc1 (stereo partly drawn) [compound 31] (H-VH[Aib]EGT[ξαMePhe(2,6-F2)]TSD[ξαMeBip(2'-Et,4'-OMe)][ξhhPhe]-NH2) | 12.7 ± 0.21 pg/µg/h | 15.8 ± 0.33 pg/µg/h | 29.3 ± 0.19 pg/µg/h
3 | 00% | > 24 h | 00% | > 24 h |  | 52% |  | 00% | 81% | 2 h | 4 h | > 24 h |  |  | CCc1cc(OC)ccc1-c1ccc(CC(C)(NC(=O)[C@H](CC(=O)O)NC(=O)C(C)(CO)NC(=O)[C@@H](NC(=O)C(C)(Cc2ccccc2F)NC(=O)[C@@H](NC(=O)CNC(=O)[C@H](CCC(=O)O)NC(=O)[C@H](C)NC(=O)[C@H](Cc2c[nH]cn2)NC(=O)[C@@H](N)C(C)C)[C@@H](C)O)[C@@H](C)O)C(=O)NC(C)(CCCc2ccccc2)C(N)=O)cc1 (stereo partly drawn) [compound 170] (H-VHAEGT[ξαMePhe(2-F)]T[ξαMeS]D[ξαMeBip(2'-Et,4'-OMe)][ξαMe(hhPhe)]-NH2) | 12.3 ± 0.33 pg/µg/h | 14.8 ± 0.16 pg/µg/h | 28.1 ± 0.22 pg/µg/h
4 | 75% |  | 77% |  |  | 100% |  | 100% | 100% | 0.5 h | 0.5 h | 0.5 h | (9) h |  | CCc1cc(OC)ccc1-c1ccc(CC(C)(NC(=O)[C@H](CC(=O)O)NC(=O)C(C)(CO)NC(=O)[C@@H](NC(=O)C(C)(Cc2c(F)cccc2F)NC(=O)[C@@H](NC(=O)CNC(=O)[C@H](CCC(N)=O)NC(=O)[C@H](C)NC(=O)[C@H](Cc2c[nH]cn2)NC(=O)[C@@H](N)C(C)C)[C@@H](C)O)[C@@H](C)O)C(=O)NC(CCCc2ccccc2)C(N)=O)cc1 (stereo partly drawn) [compound 50] (H-VHAQGT[ξαMePhe(2,6-F2)]T[ξαMeS]D[ξαMeBip(2'-Et,4'-OMe)][ξhhPhe]-NH2) | 12.9 ± 0.14 pg/µg/h | 15.8 ± 0.13 pg/µg/h | 29.9 ± 0.15 pg/µg/h
5 | 00% | > 24 h | 00% | > 24 h |  | 55% |  | 00% | 84% | 2 h | 4 h | > 24 h |  |  | CCc1cc(OC)ccc1-c1ccc(CC(NC(=O)[C@H](CC(=O)O)NC(=O)[C@H](CO)NC(=O)[C@@H](NC(=O)C(C)(Cc2ccccc2F)NC(=O)[C@@H](NC(=O)CNC(=O)[C@H](CCC(N)=O)NC(=O)[C@H](C)NC(=O)[C@H](Cc2c[nH]cn2)NC(=O)[C@@H](N)C(C)C)[C@@H](C)O)[C@@H](C)O)C(=O)NC(C)(CCCc2ccccc2)C(N)=O)cc1 (stereo partly drawn) [compound 92] (H-VHAQGT[ξαMePhe(2-F)]TSD[ξBip(2'-Et-4'-OMe)][ξαMe(hhPhe)]-NH2) | 16.9 ± 0.22 pg/µg/h | 22.8 ± 0.31 pg/µg/h | 36.7 ± 0.34 pg/µg/h
6 | 71% | 8 h | 69% | 8 h |  | 11% | (6) h | 43% | 77% | 2 h | 7 h |  |  |  | CCc1cc(OC)ccc1-c1ccc(CC(C)(NC(=O)C(C)(CC(=O)O)NC(=O)[C@H](CO)NC(=O)[C@@H](NC(=O)[C@H](Cc2ccccc2)NC(=O)[C@@H](NC(=O)CNC(=O)[C@H](CCC(N)=O)NC(=O)[C@H](C)NC(=O)[C@H](Cc2c[nH]cn2)NC(=O)[C@@H](N)C(C)C)[C@@H](C)O)[C@@H](C)O)C(=O)NC(CCCc2ccccc2)C(N)=O)cc1 (stereo partly drawn) [compound 58] (H-VHAQGTFTS[ξαMeD][ξαMeBip(2'-Et,4'-OMe)][ξhhPhe]-NH2) | 16.1 ± 0.22 pg/µg/h | 22.1 ± 0.26 pg/µg/h | 36.0 ± 0.36 pg/µg/h
7 | 00% | > 24 h | 00% | > 24 h |  | 00% |  | 00% | 33% |  | > 24 h | > 24 h |  | (5) h | CCc1cc(OC)ccc1-c1ccc(CC(NC(=O)C(C)(CC(=O)O)NC(=O)C(C)(CO)NC(=O)[C@@H](NC(=O)[C@H](Cc2ccccc2)NC(=O)[C@@H](NC(=O)CNC(=O)[C@H](CCC(N)=O)NC(=O)[C@H](C)NC(=O)[C@H](Cc2c[nH]cn2)NC(=O)[C@@H](N)C(C)C)[C@@H](C)O)[C@@H](C)O)C(=O)NC(C)(CCCc2ccccc2)C(N)=O)cc1 (stereo partly drawn) [compound 108] (H-VHAQGTFT[ξαMeS][ξαMeD][ξBip(2'-Et-4'-OMe)][ξαMe(hhPhe)]-NH2) | 11.9 ± 0.17 pg/µg/h | 14.2 ± 0.13 pg/µg/h | 27.6 ± 0.16 pg/µg/h
